Source: US20240101569A1, “SALT CRYSTALS” (INTRA-CELLULAR THERAPIES, INC., priority 2021, published 2024)

Tests used:
[1] = Pharmacokinetics study of succinate salt crystals in dogs; assay type: in vivo; conditions: 5 mg/kg orally, plasma; for DN AUC0-24 / DN Cmax: dose-normalised; for Cmax / Tmax / half-life / AUC(0-t): dog, po; for AUC(0-t): read-out: AUC0-24
Procedure: The succinate salt of 2-(4-acetylbenzyl)-3-((4-fluorophenyl)amino)-5,7,7-trimethyl-7,8-dihydro-2H-imidazo[1,2-a]pyrazolo[4,3-e]pyrimidin-4(5H)-one is administered to dogs at a dose of 5 mg/kg orally. A separate group of dogs is administered 2-(4-acetylbenzyl)-3-((4-fluorophenyl)amino)-5,7,7-trimethyl-7,8-dihydro-2H-imidazo[1,2-a]pyrazolo[4,3-e]pyrimidin-4(5H)-one free base 5 mg/kg orally. The analysis of drug concentration in plasma samples collected is analyzed.
The pharmacokinetic (PK) parameters are determined from the plasma concentration versus time data by non-compartmental methods with uniform weighting. The maximum observed concentration (Cmax) and the time of the maximum observed concentration (Tmax) are obtained from the bioanalytical raw data. The area-under-the-plasma concentration-time curve from time zero to the time of the last measurable sample (AUC) is calculated by the trapezoidal rule.

[2] = Solubility study of free base crystalline and succinate salt crystalline forms (pH titration, chase equilibrium); assay type: physicochemical; conditions: water, thermodynamic from solid, aqueous, titration with UV-turbidity probe
From the text: The solubilities of free base crystalline and succinate salt crystalline forms of 2-(4-acetylbenzyl)-3-((4-fluorophenyl)amino)-5,7,7-trimethyl-7,8-dihydro-2H-imidazo[1,2-a]pyrazolo[4,3-e]pyrimidin-4(5H)-one are compared. Samples are titrated in water or in a minimum of three titrations under co-solvent conditions from the pH where the sample is fully dissolved. The sample precipitates from solution are detected by a UV-turbidity probe, which corresponds to a kinetic solubility. After precipitation, base and acid titrants are alternately added to drive the sample back and forth across the equilibrium solubility of the neutral species (the intrinsic solubility). At this point, the samples would exist in a supersaturated or subsaturated state (i.e. chase equilibrium). The intrinsic solubilities are determined from the pH between the supersaturated and subsaturated states corresponding to an intrinsic solubility. The samples can be determined by extrapolation to aqueous media, when co-solvent conditions are used.
This degree of aqueous solubility predicts faster dissolution rates in vitro and in vivo.

[3] = test system: phosphodiesterase 1 (PDE 1); conditions: statement, no values; cited from earlier work
[4] = Solid-state properties of succinate salt crystals (stated in words); assay type: physicochemical

DN AUC0-24 [1]	DN Cmax [1]	Cmax [1] [ng/mL]	Tmax [1] [h]	half-life [1] [h]	AUC(0-t) [1] [ng·h/mL]	solubility [2] [µg/mL]	hygroscopicity [4]	solubility (in words) [4]	stability [4]	SMILES	PDE1 inhibition (in words) [3]
304.6 [ng · hr/mL]/[mg/kg]	41 [ng/mL]/[mg/kg]	205	1.3	6.8	1520	285	–	–	–	CC(=O)c1ccc(Cn2nc3c(c2Nc2ccc(F)cc2)C(=O)N(C)C2=NC(C)(C)CN23)cc1 [Free Base, 2-(4-acetylbenzyl)-3-((4-fluorophenyl)amino)-5,7,7-trimethyl-7,8-dihydro-2H-imidazo[1,2-a]pyrazolo[4,3-e]pyrimidin-4(5H)-one]	potent and selective
331.9 [ng · hr/mL]/[mg/kg]	123.8 [ng/mL]/[mg/kg]	619	0.4	7	1660	~7000	low hygroscopicity	good solubility	particularly stable	CC(=O)c1ccc(Cn2nc3c(c2Nc2ccc(F)cc2)C(=O)N(C)C2=NC(C)(C)CN23)cc1.O=C(O)CCC(=O)O [Succinate Salt, 2-(4-acetylbenzyl)-3-((4-fluorophenyl)amino)-5,7,7-trimethyl-7,8-dihydro-2H-imidazo[1,2-a]pyrazolo[4,3-e]pyrimidin-4(5H)-one succinate]	–
